Assay results from the OligoGym collection.
“And” between values parts separate entries of the source, which are not always exact repeats. Equal entries are not always repeated. After the bases stand the sugars from the 5' end (letter, count) and the backbone: PS all phosphorothioate, else s phosphorothioate and o phosphodiester by linkage. Methylation of C is not given here. e = 2'-O-(2-methoxyethyl) (MOE); k = constrained ethyl (cEt); d = 2'-deoxy (DNA); m = 2'-O-methyl

Target: HSD17B13
Settings: ASO, HepaRG

Row | Sequence | target mRNA inhibition (1 µM) [%] | other results
1 | TATCTATTATGCACTC (sugars k3 d10 k3, PS) | 48 | –
2 | TATCTTAAGAGAAGGT (sugars k3 d10 k3, PS) | 29 | –
3 | TATGAAGTTAGTATAG (sugars k3 d9 k3 e1, PS) | 13 | –
4 | TATGAAGTTAGTATAG (sugars kkdddddddddkekek, PS) | 47 | –
5 | TATGACAACTGGAGGT (sugars k3 d10 k3, PS) | 14 | –
6 | TATGTAATAGCCAGTA (sugars kkdddddddddkekek, PS) | 78 | target mRNA inhibition (0.02 µM): 9%; target mRNA inhibition (0.078 µM): 33%; target mRNA inhibition (0.313 µM): 58%; target mRNA inhibition (1.25 µM): 67%; target mRNA inhibition (5 µM): 85%
7 | TATTAAGTACTGTGAG (sugars k3 d10 k3, PS) | 0 | –
8 | TATTAGAAGTCAGCCC (sugars k3 d9 k3 e1, PS) | 32 | –
9 | TATTATGTGATTGAGT (sugars k3 d10 k3, PS) | 86 | target mRNA inhibition (0.02 µM): 60% and 50%; target mRNA inhibition (0.078 µM): 69%; target mRNA inhibition (0.313 µM): 68%; target mRNA inhibition (1.25 µM): 76%
10 | TATTCTGTGGCATGGC (sugars k3 d1 m1 d8 k3, PS) | 55 | –
11 | TATTCTGTGGCATGGC (sugars kkdddddddddkekek, PS) | 57 | –
12 | TATTCTTATGTCATCC (sugars k3 d10 k3, PS) | 75 | –
13 | TATTGGTAAGTATTCC (sugars k3 d1 m1 d8 k3, PS) | 41 | –
14 | TCAAAACCTTTGTTGC (sugars k3 d10 k3, PS) | 6 | –
15 | TCAAGTAATAAAGTCC (sugars k3 d10 k3, PS) | 49 | –
16 | TCACAATCTAGCAACC (sugars k3 d10 k3, PS) | 4 | –
17 | TCACCACGATTGTTAC (sugars k3 d10 k3, PS) | 34 | –
18 | TCACCTTTCATAATGT (sugars k3 d1 m1 d8 k3, PS) | 47 | –
19 | TCACCTTTCATAATGT (sugars k3 d10 k3, PS) | 63 | –
20 | TCACTATATTGCATTC (sugars k3 d10 k3, PS) | 35 | –
21 | TCAGAACAGTTCAACT (sugars k3 d10 k3, PS) | 30 | –
22 | TCAGACTTCTTACGAC (sugars k3 d10 k3, PS) | 36 | –
23 | TCAGTAGAGAGCATAA (sugars k3 d10 k3, PS) | 52 | –
24 | TCAGTATCCCCTCAAA (sugars k3 d10 k3, PS) | 64 | –
25 | TCAGTCCTTGTGTAGT (sugars k3 d10 k3, PS) | 72 | –
26 | TCATAAAGGTGGGATA (sugars k3 d10 k3, PS) | 40 | –
27 | TCATACCACATACCCA (sugars k3 d10 k3, PS) | 41 | –

Row | Sequence | target mRNA inhibition (1 µM) [%] | other results
28 | TCATAGCTCACTTAGT (sugars k3 d10 k3, PS) | 0 | –
29 | TCATAGTTCAAATTGG (sugars k3 d10 k3, PS) | 47 | –
30 | TCATAGTTTATATGGA (sugars k3 d10 k3, PS) | 44 | –
31 | TCATCGATGGAAGAAG (sugars k3 d10 k3, PS) | 24 | –
32 | TCATTTAGAATACGCT (sugars k3 d10 k3, PS) | 20 | –
33 | TCATTTAGCAGCTTGG (sugars k3 d10 k3, PS) | 79 | target mRNA inhibition (0.02 µM): 12%; target mRNA inhibition (0.078 µM): 31%; target mRNA inhibition (0.313 µM): 43%; target mRNA inhibition (1.25 µM): 87%; target mRNA inhibition (5 µM): 84%
34 | TCATTTTTAATACGAC (sugars k3 d10 k3, PS) | 48 | –
35 | TCCAAATCAGGTAGTT (sugars k3 d10 k3, PS) | 22 | –
36 | TCCAAGTAGGAGTAGA (sugars k3 d10 k3, PS) | 24 | –
37 | TCCAATACAGGCCATA (sugars k3 d10 k3, PS) | 62 | –
38 | TCCAGAATAGAGTTGC (sugars k3 d10 k3, PS) | 46 | –
39 | TCCATAATAATAGCTC (sugars k3 d10 k3, PS) | 69 | –
40 | TCCCAACCAAACTTCC (sugars k3 d10 k3, PS) | 82 | target mRNA inhibition (0.02 µM): 0%; target mRNA inhibition (0.078 µM): 0%; target mRNA inhibition (0.313 µM): 7%; target mRNA inhibition (1.25 µM): 25%; target mRNA inhibition (5 µM): 63% and 50%
41 | TCCCACAAAACTAACC (sugars k3 d10 k3, PS) | 24 | –
42 | TCCCACAGAACCAATA (sugars k3 d10 k3, PS) | 24 | –
43 | TCCGAAAAAAGTGGAG (sugars k3 d10 k3, PS) | 12 | –
44 | TCCTACAGTGCTTAGT (sugars k3 d10 k3, PS) | 44 | –
45 | TCCTCCACACCGCGCT (sugars k3 d10 k3, PS) | 20 | –
46 | TCCTGTGTTAGCTTTA (sugars k3 d1 m1 d8 k3, PS) | 72 | –
47 | TCCTGTGTTAGCTTTA (sugars k3 d10 k3, PS) | 56 | –
48 | TCCTTTGTATTTCGCT (sugars k3 d10 k3, PS) | 68 | –
49 | TCGGTCACCTTTCATA (sugars k3 d9 k3 e1, PS) | 72 | –
50 | TCGGTCACCTTTCATA (sugars k3 d10 k3, PS) | 64 | –
51 | TCGGTCACCTTTCATA (sugars kkdddddddddkekek, PS) | 63 | –
52 | TCGGUCACCTTTCATA (sugars k3 d1 m1 d8 k3, PS) | 21 | –
53 | TCTAAACATCTCTGGG (sugars k3 d9 k3 e1, PS) | 42 | –
